Experimental findings from patent publication US20250154180A1, “CRK-LIKE (CRKL) ADAPTOR PROTEIN INHIBITORS AND METHODS OF MAKING AND USING THE SAME” (Rutgers, The State University of New Jersey, priority 2022, published 2025) are described below.

“Also recorded” adds a separate entry of the source. Where a name gives a salt, the structure may show the parent alone. Read-outs that look alike come from different tables or passages of the source.

In data set [1] the test system is MDA-MB-231 cells. Kind of data set: MTT proliferation assay, MDA-MB-231. The data set is classed as cell-based. Here is the method: (§1) MTT assay—The MTT assay was used to detect cell proliferation. Briefly, cells were plated in a 96-well plate at a density of 50,000 cells/well in 200 μl of culture medium with candidate drugs to be tested (DMSO as a negative control). The treated cells were incubated for four hours a 37° C. with a 5% CO2 incubator to allow dark crystals to form at the bottom of the wells. After culturing for 48 hours, […] of MTT reagent was added to each well and mixed gently for one minute. After aspirating the culture medium from each well, 100 μl of crystal dissolving solution was added to each well and incubated for 10 minutes at RT. The signal was quantified by measuring the absorbance in each sample at 570 nm using a microplate reader.
(§2) Compound II is referred to as “NC5-SO2F” in FIGS. 7A-7C.
Cell proliferation was first determined by MTT assay as confirmation. […] CrkL is known to mediate the activation of both Raf/ERK and PI3K pathways. So, proteins that relate to these two pathways were utilized.

Data set [2] has as its system PDAC cells BXPC3. As to the kind of experiment: MTT assay, BXPC3. Format: cell-based. The note with it: 5 uM. As to the method: as §1, §2
In general terms: Tetrazolium dyes change colour on reduction, which living cells bring about.

The subject of data set [3] is BXPC3 cells. As to the kind of experiment: Propidium iodide staining, BXPC3. The data set is classed as cell-based. The note with it: various concentrations.
From the text: as §2

For data set [4], the system named is MDA-MB-231 cells. As to the kind of experiment: XTT cell viability, MDA-MB-231. Format: cell-based. The note with it: 24 and 48 hours. As to the method:
(§3) FIGS. 8A-8C show results using MDA-MB-231 cells (FIG. 8A) or BXPC3 cells (FIG. 8B), wherein the cells were treated with 5 μM of NC5, Compound III (referred to as “NC5-140-1” in FIGS. 8A-8C), and Compound I (referred to as “NC5-140-2” in FIGS. 8A-8C) for 24-48 hours, wherein the XTT assay was used to determine cell viability. The symbol indicates the significance of NC5 vs. Compounds I and/or III; *p<0.05. Data represent mean±SEM.
(§4) Compound embodiments, compound III and compound I, were also made and evaluated. TNBC cells and PDAC cells were treated with a serial dose of original NC5 and modified NC5 derivatives for 24 and 48 hours. The cell viability will be measured by XTT assay. […] Compound III is referred to as “NC5-140-1” and Compound I is referred to as “NC5-140-2” in FIGS. 8A-8C.

Data set [5] concerns BXPC3 cells. Kind of data set: XTT cell viability, BXPC3. Format: cell-based. The note with it: 24 and 48 hours. Here is the method: as §3, §4
Data set [6] has as its system Sk-Hep1 cells. Kind of data set: Growth inhibition of Sk-Hep1 cells (cell culture images). The note with it: 5 μM, 24 hours. Format: cell-based.
Data set [7] relates to Sk-Hep1 tumor. Kind of data set: HCC Sk-Hep1 xenograft model. The data set is classed as in vivo, NSG mice. The note with it: four-group study, 5.0 μg/g oral gavage. The text has this: To further test whether the tumor growth inhibition effect of NC5 applied to other solid tumors, the HCC-Sk-Hep1cell line and PDAC-BXPC3 cell line xenograft models were used. Subcutaneous injection of 1.5×10^6 SK-Hep1 or BXPC3 cells in NSG mice, Six-ten days after tumor cell injection, the palpable tumor in NSG mice was confirmed.
To test the effects of the disclosed compounds on the xenograft mouse models, the HCC-Sk-Hep1 cell line xenograft model in NSG mice and 4T1-Luc orthotopic syngeneic breast tumor model in Balb/c mice was used. After confirming the palpable tumor in NSG or Balb/c mice. […] Compound III is referred to as “NC5-140-1” and Compound I is referred to as “NC5-140-2” in FIGS. 11A-11C.

A short description of data set [8]: Thermodynamic solubility. The data set is classed as physicochemical. The note with it: thermodynamic from solid. As to the method:
In this example, solubility measurement assays were performed using a phosphate buffer (also referred to as “PB”) system and a water system to evaluate thermodynamic solubility. The PB system was at a pH of 7.4 to mimic in vivo environments. For the PB system, the values were determined to be NC5: Thermodynamic Solubility pH=7.4<0.42 μg/mL; Compound III: Thermodynamic Solubility pH=7.4<0.48 μg/mL; and Compound I: Thermodynamic Solubility pH=7.4<0.48 μg/mL. Results for the water assay were as follows: NC5: Thermodynamic Solubility Water<0.42 μg/mL; Compound III: Thermodynamic Solubility Water<0.48 μg/mL; and Compound I: Thermodynamic Solubility Water<0.48 μg/mL.

In data set [9] the test system is CrkL (phosphorylation at Y207 by Ab1). Kind of data set: AlphaScreen of Ab1 phosphorylation of CrkL at Y207. Format: biochemical. The note with it: compared to DMSO; positive control in the five libraries. Background: Bead proximity is the source of the signal in Alpha formats.
In data set [10] the target is CrkL (Homo sapiens, UniProt P46109). Format: biochemical. An excerpt: Single-molecule Fluorescence Resonance Energy Transfer (smFRET)—Single-molecule Fluorescence Resonance Energy Transfer (smFRET) was applied to monitor conformations of single molecules. CrkL has two cysteines (a relatively rare amino acid), one in its SH2 and another in SH3C domains. CrkL was mixed with a mixture of equal amounts of Alexa555-maleimide and Alexa647-maleimide (Invitrogen, USA) (10× over protein concentration) to randomly label the two cysteines. The labeled protein was purified from an unreacted dye by gel filtration. Molecules with exactly one donor and acceptor are identified in single-molecule data analysis and used for further analysis. […] The FRET change between non-phosphorylated CrkL and phosphorylated CrkL was measured. The dye-labeled protein was used in in vitro kinase assays with different drugs treatments as described above. smFRET measurements were performed with a prism-type total internal refection microscope (TIRF) where FRET efficiency is calculated from measured donor and acceptor intensities (Id and Ia, respectively) by FRET=Ia/(Id+Ia), as described previously. To surface immobilize 6×His tagged CrkL, the protein was added to the biotinylated 6×His antibody (Thermo Scientific Cat #: MA1-80087) bound to streptavidin, which was adsorbed to a quartz slide. A lipid bilayer was used to passivate the quartz surface. Phosphorylation was performed on the immobilized Crk in situ.
In intramolecular smFRET, non-radiative energy transfer occurs when two fluorophores attached to different parts of one molecule move close together. […] A cysteine-maleimide-based chemistry was used to label both CrkL and mutant (non-phosphorylatable) CrkL-Y207F. CrkL has a cysteine (a relatively rare amino acid) in its SH2 (labeled with AlexaFluor555) and SH3C (labeled with AlexaFluor647). […] Western Blot (WB) and immunoprecipitation (IP) was used to verify that labeled proteins retain the same gross functional properties as wild-type CrkL (e.g., are phosphorylatable and capable of binding SH2 and SH3 ligands). Briefly, site-specific labeled CrkL was mixed with Ab1 in the presence of Mg^2+ and ATP. A single AlphaScreen-identified candidate inhibitor was then added per assay.

For data set [11], the system named is IL-2 production from human PBMCs. As to the kind of experiment: IL-2 ELISA, PBMCs. The data set is classed as cell-based. As to the method:
IL-2 ELISA—IL-2 in vitro enzyme-linked immunosorbent assay (ELISA) was used to measure human IL-2 productions. This assay was conducted per the user manual from the kit. In brief, human PBMCs were cultured in R10 medium with 0.5 μg/ml PHA. Then, 100 μl of the standard and sample was added to each well and incubated at 4° C. overnight. A prepared biotin antibody (100 μl) was added to each well and incubated for 1 hour at room temperature. Then, 100 μl prepared streptavidin solution was added and incubated for 45 minutes at room temperature. TMB one-step substrate reagent (100 μl) was then added to each well and incubated for 30 minutes at room temperature. Stop solution (50 μl) was then added to each well, and the results were quantified at 450 nm by Infinite M1000 Pro Plate Reader (Tecan, Switzerland) immediately.
Previous studies have shown that phosphorylated CrkL inhibits immune cell functions. It was then evaluated whether a pCrkL inhibitor could restore immune cell functions. To test this, the production of IL-2 from human PBMCs treated with different concentrations of Pomiferin was quantitated. Phytohemagglutinin (PHA) was used to stimulate the secretion of IL-2 as a positive control group. […] Similar results were obtained from the third donor (FIG. 5B, lower panel).
(In an ELISA, binding on a coated surface is turned into a signal by an enzyme label.)

Data set [12] can be described thus: Mouse toxicity assays (serum ALT, AST, BUN, creatinine). The data set is classed as in vivo, mice. The note with it: at the indicated dosages. As to the method:
Three mice were treated in each group. Blood samples were collected from every mouse in pre-treatment and post-treatment (20 days), and serum was obtained for alanine aminotransferase (ALT, SGPT, FIG. 12A), aspartate aminotransferase (AST, SGOT, FIG. 12B), blood urea nitrogen (BUN, FIG. 12C), and creatinine (FIG. 12D) tests to monitor liver and kidney toxicity. The normal Reference Ranges for ALT is 17-77 IU/L; AST is 54-298 IU/L; BUN is 18.5-33.3 mg/dL; Cr is 0-0.40 mg/dL.
Mouse toxicity assays—Blood was collected from the submandibular facial vein following IACUC guidelines (CMP, Houston Methodist Research Institute and Rutgers University) before and 20-day after the drug treatment. The Department of Veterinary Medicine & Surgery, MD Anderson Cancer Center, performed the clinical biochemistry and pharmacokinetics tests. Blood serum chemistry analysis included alanine transaminase (ALT), aspartate transaminase (AST), blood urea nitrogen (BUN), and creatinine level measurements.
Alanine aminotransferase (ALT, SGPT), aspartate aminotransferase (AST, SGOT), blood urea nitrogen (BUN), and creatinine levels were examined to determine liver and kidney toxicity of Pomiferin treatments in vivo. […] Nevertheless, these changes have no physiological significance because ALT, AST and BUN levels in all mice were within normal mouse reference ranges. […]

CrkL, sequence (P46109 whole entry, the tested form may be a part): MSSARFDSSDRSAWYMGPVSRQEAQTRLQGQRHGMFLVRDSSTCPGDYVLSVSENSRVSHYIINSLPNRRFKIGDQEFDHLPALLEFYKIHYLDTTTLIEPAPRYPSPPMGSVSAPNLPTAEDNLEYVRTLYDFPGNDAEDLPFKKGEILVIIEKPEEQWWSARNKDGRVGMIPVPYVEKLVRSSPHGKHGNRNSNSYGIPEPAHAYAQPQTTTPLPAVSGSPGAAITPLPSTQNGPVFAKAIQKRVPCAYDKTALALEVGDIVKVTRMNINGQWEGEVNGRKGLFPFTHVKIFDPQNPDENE

Consider `CC(C)=CCc1c2c(c3occ(-c4ccc5c(c4)OS(=O)(=O)O5)c(=O)c3c1OS(=O)(=O)F)C=CC(C)(C)O2` [Compound II], for which the “toxicity compared with NC5 (MTT viability)” value in data set [1] (5 μM) is recorded as “increased toxicity”. In addition, the “killing effect compared with NC5 (MTT)” value in data set [1] (different concentrations) is on record as “comparable killing effect as NC5”. Also, in data set [2], the “killing effect / toxicity compared with NC5 (MTT)” value was “stronger killing effect than NC5; also recorded: increased toxicity”. The “killing effect by propidium iodide staining” value in data set [3] is listed as “killing effect was further confirmed”.
As to `CC(C)=CCc1c2c(c(O)c3c(=O)c(-c4ccc5c(c4)OS(=O)(=O)O5)coc13)C=CC(C)(C)O2` [Compound I], the results for the “toxic effect compared with NC5 (XTT viability)” value in [4] and in data set [5] were “comparable toxic effect as NC5” and “better toxic effect than NC5”, respectively. Moreover, the “toxic effect compared with NC5 (growth inhibition)” value in data set [6] is “better toxic effect than NC5”. Besides, the tumor growth entry in data set [7] is on record as “inhibit tumor growth”. Moreover, the median survival in data set [7] (vehicle 26 days) is 28.5 days. For the same compound, the solubility (thermodynamic) in data set [8] (aqueous buffer, phosphate buffer (PB) system, pH 7.4, read-out: Thermodynamic Solubility pH=7.4) was less than 0.48 µg/mL; in [8] (water system, read-out: Thermodynamic Solubility Water), less than 0.48 µg/mL.
In the case of `Cc1ccc(NC(=O)c2ccc(CN3CCN(C)CC3)cc2)cc1Nc1nccc(-c2cccnc2)n1` [Gleevec, imatinib mesylate], in data set [9], the Alpha signal decrease was 80-90%. The “inhibition of the higher FRET caused by Ab1 (pCrkL)” value in data set [10] (CrkL + Ab1, Mg2+ and ATP) was “inhibited”. In addition, the FRET signal in [10] (CrkL about 0.4, CrkL+Ab1 about 0.6) is 0.4. The IL2 secretion result in data set [11] (PBMCs from three healthy donors, treated overnight) is given as “did not inhibit IL2 secretion”. For the same compound, the IL-2 production result in [11] (first donor, compared to DMSO) is “decreased IL-2 production”. Besides, the “damage to the liver and kidneys” value in [12] is “little to no damage to the liver and kidneys”.

A word on the thermodynamic solubility: it is solubility found after equilibrating the solid with the medium.
